Reference: patent publication US8138357B2, “Compounds and their salts specific to the PPAR receptors and the EGF receptors and their use in the medical field” (Giuliani International Limited, priority 2005, dated 2012)
“Also recorded” adds a separate entry of the source. Residues, ends and D or L forms follow the SMILES beside them. *: point of attachment. Cbz = O=C(OCc1ccccc1)*; CH2F = FC*

Assays:
DLD-1 cells [1] = test: Cell death by Annexin V / propidium iodide FACS analysis; assay type: cell-based, human; settings: 48 hours
Description: The effect of the compound 14 on colon epithelial cell death was also assessed. To this end, cells were cultured as indicated above for 2 days and then the fraction of Annexin V (AV) and/or propidium iodide (PI)-positive cells was evaluated using a commercially available kit (Beckmann Coulter™, Milan, Italy). To evaluate whether the effect of the compound 14 on colon epithelial cell death was dependent on caspase activity, cells were pre-incubated with z-VAD-fmk (40 μM), a pan-caspase inhibitor, for 1 hour prior to adding the compound 14 (1.5 mM). The fraction of AV and PI-positive cells was determined after 48 hours culture as indicated above.

[2] = Solubility in drug solutions / culture medium; assay type: physicochemical; settings: for precipitates in cell cultures: colon cancer cell cultures; for solubility: drug solutions for HT-29 experiments, 30 mM, pH 7.4
HT-29, HT-115 and DLD-1 = test: Colon cancer cell growth by BrdU assay, three human colon carcinoma cell lines; assay type: cell-based; settings: for anti-proliferative effect on colon cancer cell growth (in words): 0.5-10 mM; for anti-proliferative effect on colon cancer cell growth (in words) / inhibition at 10000 µM: 48 h; for inhibition at 10000 µM: Homo sapiens, Colon carcinoma cell, final concentration 10 mM; for cell death following precipitates in cell cultures: colon cancer cell cultures, Example 10
Description: For this purpose, three human colon carcinoma cell lines (i.e. HT-29, HT-115 and DLD-1) were used. These cell types were selected on the basis of the cyclooxigenase-2 (COX-2) expression. Indeed, HT-115 cells express a biologically active COX-2, HT-29 cells express a non-functional COX-2 isoform, and DLD-1 are COX-2-deficient cells.
(§1) HT-29 and DLD-1 cells were cultured in McCoy and RPMI1640 media respectively, supplemented with 10% fetal bovine serum (FBS), 1% penicillin/streptomycin (P/S) and 50 μg/ml gentamycin. HT-115 were cultured in DMEM medium supplemented with 15% FBS and 1% P/S. Cells were maintained in a humidified incubator at 37° C., in the presence of 5% CO2.
(§2) For cell growth assays, single-cell suspensions were plated at 2×10^3 cells/well (4×10^3 cells/well for HT115) in 96-well culture dishes in medium containing 0.5% FBS and allowed to adhere. The non-adherent cells were then removed, and fresh medium containing 0.5% FBS was added into each well. Cells were cultured in the presence or absence of the specified substances. Each substance was dissolved as a 25 mM stock solution in culture medium containing 0.5% FBS, and the pH of each stock solution was adjusted to 7.4, if necessary, with NaOH. Substances were used at a final concentration ranging from 0.5 to 10 mM. Cell proliferation was determined by measuring the incorporation of 5-bromo-2′-deoxyuridine (BrdU) into DNA using a commercially available cell proliferation kit (Roche Diagnostics™, Monza, Italy). BrdU was added to the cell cultures during the last 6 hours of incubation, and the level of BrdU-positive cells was assessed after 48 h culture by enzyme-linked immunosorbent assay (ELISA).
(§3) Optical density (OD) was determined at 450 nm using an ELISA reader. Experiments were performed in triplicate and the results are reported as the mean±standard deviation (SD).

DLD-1 cells [3] = test: CFSE flow cytometry of cell proliferation; assay type: cell-based, human; settings: 48 hour treatment, untreated 90±4%
Description: To assess further the effect of the compound 14 on colon epithelial cell growth, serum-starved DLD-1 cells were incubated in 0.2 μM carboxyfluorescein diacetate succinimidyl ester (CFSE) (Invitrogen™, Milan Italy) at 37° C. for 30 minutes, then extensively washed and cultured with or without the addition of the compound. After 2 days culture, CFSE fluorescence was evaluated and the proportion of cells undergoing divisions was determined, thus allowing calculation of both precursor frequency and proliferative index.

DLD-1 cells [4] = test: Cell growth by colorimetric BrdU incorporation assay, DLD-1; assay type: cell-based; settings: Homo sapiens, 48 hours; for inhibition at 500 µM: 0.5 mM; for inhibition at 1000 µM: 1 mM; for inhibition at 2500 µM: 2.5 mM; for inhibition at 5000 µM: 5 mM; for inhibition at 10000 µM: 10 mM
Description: as §1, §2, §3

HT-29 STD cells [5] = test: Cytotoxic effect on epithelial cells seen in the HT-29 experiments; assay type: cell-based, human; settings: 30 mM, HT-29 cells
Description: (§4) HT-29 STD cells were transiently transfected using the Effectene™ transfection reagent (Qiagen™) according to instructions from the manufacturer. To test PPARγ activation, we performed transfection with 500 ng of a minimal promoter construct containing two copies of PPRE obtained from the cytochrome p450 4A (2XCYP) (1). The renilla luciferase plasmid ([…]) was also transfected as an internal control for monitoring transfection efficiency and for normalizing the firefly luciferase activity. Transfected cells were left for 48 hours incubation at 37° C. […] The pH of the drug solutions was adjusted to 7.4 with NaOH. Total cell extracts were prepared using the Passive Lysis Buffer (Promega™, Madison, Wis.). Luciferase activity was assayed in 20 μl of the extract using the Promega™ Dual Luciferase assay system according to the manufacturer's protocol. Transfections were assayed in triplicate in at least three separate experiments. The luciferase activity was expressed as fold of the activity obtained in cells treated with the different molecules divided by luciferase activity from non-stimulated cells.
After 24 h of culture, HT-29 STD cells were treated during 24 h with the new molecules 13, 14, 17, 26 and 31, at 30 mM. […] The pH of the drug solutions was adjusted to 7.4 with NaOH. Cells were fixed in PFA 4%, permeabilized in PBS containing 0.1% Triton X-100™ at 4° C. and then incubated with goat normal serum and blocking buffer (1% BSA in PBS) to minimize non-specific adsorption of the antibody.
After 24 h of culture, HT-29 STD cells were treated during 24 h with the new molecules 13, 14, 17, 26 and 31, at a concentration of 30 mM. […] The pH of the drug solutions was adjusted to 7.4 with NaOH. Cells undergoing apoptosis were identified by enzymatic labelling of DNA strands using a terminal transferase dUTP nick end labelling assay (TUNEL assay, Roche Diagnostics™, Meylan, France). Counts of at least 500 cells/sample were systematically performed blindly in one experiment. The results were expressed as the mean±SEM of the number of stained cells.

PPARγ [6] = test: PPARγ protein expression by western blot in HT-29 cells; assay type: cell-based, human; settings: 30 mM, 24 hours, HT-29, relative to β-actin
Description: The total proteins were obtained by cell homogenization in an extraction buffer consisting of PBS with 2% Triton™, Phenyl Methyl Sulphonyl Fluoride (PMSF) 100 mM and a classical protease inhibitor cocktail (2). The total proteins were then separated by polyacrylamide gel electrophoresis and electroblotted. Polyvinylidendifluoride (PVDF) membranes were incubated overnight with rabbit polyclonal primary antibody directed against PPARγ (dilution 1/500, TEBU, Le Perray en Yveline, France). β-actin was detected using a rabbit monoclonal primary antibody diluted at 1/10,000 (Sigma). Immunodetection with a secondary peroxidase-conjugated antibody (1/1000, Dako™, Trappes, France) and chemiluminescence was performed according to the manufacturer's protocol (ECL™, Amersham Pharmacia Biotech™, Orsay, France). Optical density values of PPARγ were given for each condition in proportion to the quantity of the internal control β-actin in the same sample (2).

HT-29 STD cells [7] = test: Cell proliferation by nuclear Ki-67 immunostaining; assay type: cell-based; settings: Homo sapiens, 30 mM, 24 h, compared to untreated cells, read-out: inhibition of cell proliferation (Ki-67 staining)
Description: After 24 h of culture, HT-29 STD cells were treated during 24 h with the new molecules 13, 14, 17, 26 and 31, at 30 mM. […] The pH of the drug solutions was adjusted to 7.4 with NaOH. Cells were fixed in PFA 4%, permeabilized in PBS containing 0.1% Triton X-100™ at 4° C. and then incubated with goat normal serum and blocking buffer (1% BSA in PBS) to minimize non-specific adsorption of the antibody. Cell proliferation was assessed by a nuclear Ki-67 staining using mouse monoclonal primary antibody directed against Ki-67 (dilution 1:50 overnight; ZYMED™ Clinisciences™, Montrouge, France). […] Nuclei were stained with Hoescht 33342 solution (0.125 mg/mL) (Sigma-Aldrich™) and visualized under a fluorescence microscope (Leica™, Bensheim, Germany). Negative controls consisted of staining with a non-specific mouse serum instead of the specific antibody. Counts of at least 500 cells/sample were systematically performed blindly in one experiment. The results were expressed as the mean±SEM of the number of stained cells.

PPARγ [8] = target: T1, PPARγ (Homo sapiens, UniProt P37231); test: PPARγ activation, PPRE (2XCYP) luciferase reporter in transfected HT-29 STD cells (Example 8); assay type: cell-based; settings: 30 mM, 24 hours, HT-29 STD transfected with 2XCYP
T1 construct: HT-29 STD cells were transiently transfected using the Effectene™ transfection reagent; endogenous in cells; host or cells: HT-29 STD (human colon carcinoma)
T1 sequence (P37231 1-505): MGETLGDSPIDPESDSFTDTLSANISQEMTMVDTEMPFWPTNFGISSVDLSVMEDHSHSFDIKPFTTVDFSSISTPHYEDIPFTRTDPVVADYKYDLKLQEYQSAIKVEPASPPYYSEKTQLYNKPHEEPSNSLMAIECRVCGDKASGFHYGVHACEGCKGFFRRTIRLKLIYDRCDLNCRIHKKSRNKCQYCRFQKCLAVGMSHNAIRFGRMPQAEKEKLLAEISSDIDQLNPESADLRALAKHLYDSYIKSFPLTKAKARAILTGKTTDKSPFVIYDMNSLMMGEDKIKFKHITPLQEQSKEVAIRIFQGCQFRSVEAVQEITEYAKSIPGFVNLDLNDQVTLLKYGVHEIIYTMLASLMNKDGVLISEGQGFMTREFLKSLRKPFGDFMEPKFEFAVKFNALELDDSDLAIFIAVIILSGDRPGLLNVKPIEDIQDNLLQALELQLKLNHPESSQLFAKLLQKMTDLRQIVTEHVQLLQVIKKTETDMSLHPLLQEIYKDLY
Description: as §4

| Compound | anti-proliferative effect on colon cancer cell growth (in words) (HT-29, HT-115 and DLD-1) | inhibition at 500 µM (DLD-1 cells [4]) [%] | inhibition at 1000 µM (DLD-1 cells [4]) [%] | inhibition at 2500 µM (DLD-1 cells [4]) [%] | inhibition at 5000 µM (DLD-1 cells [4]) [%] | inhibition at 10000 µM (DLD-1 cells [4]) [%] | cytotoxic effect on epithelial cells (HT-29 STD cells [5]) | other results |
| --- | --- | --- | --- | --- | --- | --- | --- | --- |
| COC(=O)C[C@H](NC(=O)[C@H](C)NC(=O)[C@@H](NC(=O)OCc1ccccc1)C(C)C)C(=O)CF [Z-VAD, z-VAD-fmk, reference compound] (Cbz-Val-Ala-Asp(OMe)-CH2F) |  |  |  |  |  |  |  | percentage of AV/PI-positive cells in cells treated with compound 14 (DLD-1 cells [1]; preincubation z-VAD-fmk 40 μM 1 hour, then compound 14 1.5 mM): largely reduced |
| CC1(C)OC(=O)c2cc(N)ccc2O1 [compound 28, 6-amino-2,2-dimethyl-4H-benzo[1,3]dioxin-4-one] |  |  |  |  |  |  |  | solubility in the culture medium ([2]; culture medium, Example 10): not soluble in the culture medium |
| COc1ccc(N)cc1C(=O)NO [compound 14, 5-amino-N-hydroxy-2-methoxybenzamide] | marked anti-proliferative effect; also recorded: most powerful suppressors of colon cancer cell growth | 22.8 | 36 | 76.5 | 90.5 | 94.1 | rapid cytotoxic effects | inhibition at 10000 µM (HT-29, HT-115 and DLD-1): > 90%; cell death (AV and/or PI-positive cells) (DLD-1 cells [1]; 1.5 mM, p<0.01): significantly enhances DLD1 cell death; cell death (AV and/or PI-positive cells) (DLD-1 cells [1]; 3 mM, p<0.001): significantly enhances DLD1 cell death; fraction of proliferating cells (DLD-1 cells [3]; 0.5 mM): 48±7%; fraction of proliferating cells (DLD-1 cells [3]; 1 mM): 21±11%; fraction of proliferating cells (DLD-1 cells [3]; 2.5 mM): 11±6% |
| CC(C)N(c1ccc(O)c(C(=O)O)c1)C(C)C [compound 38, 5-diisopropylaminosalicylic acid] | marked anti-proliferative effect; also recorded: most powerful suppressors of colon cancer cell growth | 6 | 11.1 | 51.9 | 85.9 | 94.5 | rapid cytotoxic effect | cell death following precipitates in cell cultures (HT-29, HT-115 and DLD-1): massive cell death; precipitates in cell cultures ([2]; Example 10): precipitates developed; solubility [2]: poor solubility |
| CCOc1ccc(N)cc1C(=O)NO [compound 26, 5-amino-2-ethoxy-N-hydroxybenzamide] | marked anti-proliferative effect | 13.6 | 19 | 62 | 86 | 94.5 | rapid cytotoxic effect | induction of PPARγ protein levels quantified by western blot (PPARγ [6]): 2 fold |
| COc1cc(N)ccc1C(=O)NO [compound 13, 4-amino-N-hydroxy-2-methoxybenzamide] | marked anti-proliferative effect; also recorded: most powerful suppressors of colon cancer cell growth | 21.1 | 73 | 92.7 | 96.3 | 96.4 | rapid cytotoxic effects | inhibition at 10000 µM (HT-29, HT-115 and DLD-1): > 90%; cell death following precipitates in cell cultures (HT-29, HT-115 and DLD-1): massive cell death; precipitates in cell cultures ([2]; Example 10): precipitates developed |
| Nc1cc2c(c(C(=O)O)c1)OCC2 [compound 17, 5-amino-2,3-dihydrobenzofuran-7-carboxylic acid] | marked anti-proliferative effect | 0 | 0 | 33.3 | 89.3 | 90.7 |  | inhibition at 30000 µM (HT-29 STD cells [7]): 67 to 75%; reporter gene activity, factor of increase relative to untreated cells (PPARγ [8]): two-fold; also recorded: about twice; induction of PPARγ protein levels quantified by western blot (PPARγ [6]): 2 fold; solubility [2]: poor solubility |
